Measured values taken from article PMC6270726 (Molecules, 2014).
“And” between values parts separate entries of the source, which are not always exact repeats. Identical values can stand only once. Like-named read-outs stand apart in the source and are kept apart here.

Experiments:
[1] = biological target: T1, SaSDH (Staphylococcus aureus, UniProt Q6GGA5); assay: SaSDH kinetic parameters for substrates; format: biochemical, methicillin-resistant S. aureus; conditions: substrate of SaSDH; for Km: 25 °C, random bi-bi fit; for Vmax: saturating levels of both substrates; for Kd: read-out: Kia (dissociation constant)
T1 construct: 6His-tag (N); made in house; host or cells: E. coli BL21(DE3)pLysS
T1 sequence (Q6GGA5 1-268): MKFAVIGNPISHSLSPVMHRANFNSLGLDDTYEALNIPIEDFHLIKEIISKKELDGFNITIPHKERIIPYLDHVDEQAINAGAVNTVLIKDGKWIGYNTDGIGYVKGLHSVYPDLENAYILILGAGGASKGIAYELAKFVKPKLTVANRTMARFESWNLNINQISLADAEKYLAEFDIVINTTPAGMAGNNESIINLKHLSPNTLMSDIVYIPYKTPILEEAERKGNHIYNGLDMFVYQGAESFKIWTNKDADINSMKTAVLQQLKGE
Protocol: Data were fitted to several models of bi-substrate reactions, all of which were analyzed using SigmaPlot Enzyme Kinetics Module v1.3. […] These were used to derive the turnover number (Kcat) and Kcat/Km.
(§1) Enzyme activity was measured spectrophotometrically at 25 °C at 340 nm, following NADPH generation (ε = 6.19 × 10^3 M^−1 cm^−1). The reaction mixture contained buffer A plus 1 mM SHK, 1 mM NADP^+, and 50 ng of SaSDH.
The data were linearized by the double-reciprocal transformation of Lineweaver and Burk. […] The inversion of the data matrix allowed the determination of the dissociation constant for NADP^+.

[2] = biological target: T1, SaSDH; assay: SaSDH inhibition assays (single concentration and inhibition kinetics); format: biochemical; conditions: for inhibition at 200 µM: inhibition of SaSDH activity, compound at 200 µM; for IC50: i0.5 at 400 μM of substrate, 400 μM, 50% inhibition concentration; for Pattern (inhibition mechanism): Cornish-Bowden plot
Protocol: Once the model was built, a rigid body docking procedure for virtual screening with a library of small molecules was performed. Because the enzyme is absent in humans, we selected the substrate (SHK) binding site as the target for virtual screening (Figure 3A). From the one thousand small molecules studied, a database of 38,355 poses was generated. The one hundred molecules with the highest binding energies were selected, and the capacities of these molecules to inhibit SaSDH were assessed. Inhibition assays using a concentration of 200 µM of the latter molecules were performed.
In order to study the type of inhibition of compounds on SaSDH, pharmacological and kinetic parameters (i0.5, Kic and Kiu) were determined at various concentrations of these compounds, using SHK and NADP^+ respectively, as substrates. In Figure 4, the plots of reciprocal rate multiplied by the substrate concentrations (S/v) versus inhibitor concentration in the presence of SHK and NADP^+ are shown. The intercept of the extrapolated line on the [i] axis, that corresponds to each compound concentration, is ‒i0.5. This provided a single and accurate way of estimating i0.5, which is important if it is to be used to calculate the inhibition constant.
as §1
The data were fitted to equations for competitive, uncompetitive, non-competitive and mixed inhibition, respectively, using the kinetic module of SigmaPlot program v12.3. All experiments were repeated at least twice.
The 50% inhibition concentrations (i0.5) of compounds against SaSDH were determined and analyzed by fitting to [Equation (2)]. The inhibition mechanism and inhibition constant (Kic and Kiu) were studied by fitting the inhibition data to [Equation (3)]: [drawing 12] (2) [drawing 13] (3)
Kic is the inhibition constant derived from the intercepts, whereas Kiu is the constant derived from the slope of 1/i0.5 vs v/V plots.

[3] = Kic, substrate shikimate, inhibitor binding to the substrate site
[4] = Kiu, substrate NADP^+, inhibitor binding to enzyme-substrate complex

NC(=O)c1ccc[n+]([C@@H]2O[C@H](COP(=O)([O-])OP(=O)(O)OC[C@H]3O[C@@H](n4cnc5c(N)ncnc54)[C@H](OP(=O)(O)O)[C@@H]3O)[C@@H](O)[C@H]2O)c1 [NADP^+]
Kcat [1]: 146 s⁻¹ and 146.16 s⁻¹
Km [1]: 42.6 ± 9.9 µM
Vmax [1]: 251 µmol/min/mg and 251.41 ± 7.2 µmol/min/mg
Kd [1]: 21 µM

O=C(O)C1=C[C@@H](O)[C@@H](O)[C@H](O)C1 [Shikimate, shikimate]
Km [1]: 37.5 ± 3.7 µM
Vmax [1]: 233.6 ± 1.5 µmol/min/mg
Vmax ([1]; listed as SHK): 233 µmol/min/mg
Kd ([1]; listed as SHK): 21.2 µM
Kd [1]: 21.2 µM

COC(=O)c1sc2ccccc2c1O [compound 62]
inhibition at 200 µM [2]: 33%

O=C(O)c1ccc(-c2cccs2)s1 [compound 238, 2,2'-bithiophene-5-carboxylic acid]
Ki [2, 3]: 9.53 µM
Ki [2, 4]: 48.3 µM
IC50 ([2]; substrate NADP^+): 108 µM
IC50 ([2]; substrate shikimate): 123 µM
inhibition at 200 µM [2]: 87%
Pattern (inhibition mechanism) ([2]; with respect to NADP^+): Uncompetitive
Pattern (inhibition mechanism) ([2]; with respect to shikimate): Competitive

OCC1COc2ccccc2C1 (stereo not drawn) [compound 291]
inhibition at 200 µM [2]: 31%

O=C(O)c1ccc(CN2CCOCC2)cc1 [compound 306]
inhibition at 200 µM [2]: 31%

CN(C)CCOc1ccccc1CO [compound 463]
inhibition at 200 µM [2]: 45%

CN(CCO)c1cc(C(F)(F)F)nc2ccccc12 [compound 626]
inhibition at 200 µM [2]: 49%

CCCCC#Cc1ccc(C(=O)O)o1 [compound 637]
inhibition at 200 µM [2]: 29%

O=C(O)c1csc(-c2ccc(C(F)(F)F)cc2)n1 [compound 692]
inhibition at 200 µM [2]: 31%

Cc1c(O)ccc2c1OC(C)(C)CC2=O [compound 766, 7-hydroxy-2,2,8-trimethyl-2,3-dihydro-4H-chromen-4-one]
Ki [2, 3]: 19.7 µM and 19.8 µM
Ki [2, 4]: 11.3 µM
IC50 ([2]; substrate NADP^+): 564 µM
IC50 ([2]; substrate shikimate): 343 µM
inhibition at 200 µM [2]: 87%
Pattern (inhibition mechanism) ([2]; with respect to NADP^+): Uncompetitive
Pattern (inhibition mechanism) ([2]; with respect to shikimate): Competitive

O=C1COc2cc(O)ccc21 [compound 894, 6-hydroxy-2,3-dihydrobenzo[b]furan-3-one]
Ki ([2]; Kic, substrate NADP^+, inhibitor binding to the substrate site): 901 µM
Ki [2, 3]: 58.3 µM
Ki [2, 4]: 5.2 µM
Ki ([2]; Kiu, substrate shikimate, inhibitor binding to enzyme-substrate complex): 1470 µM
IC50 ([2]; substrate NADP^+): 614 µM
IC50 ([2]; substrate shikimate): 143 µM
inhibition at 200 µM [2]: 99%
Pattern (inhibition mechanism) ([2]; with respect to NADP^+): Mixed-uncompetitive
Pattern (inhibition mechanism) ([2]; with respect to shikimate): Mixed-competitive
